In ChEMBL document CHEMBL5724914, “Linking interpersonal differences in gut microbiota composition and drug biotransformation activity” (2024):

Experiments:
[1] = (§1) The drug is tested on Z-027 corresponding to metagenome with ENA study accession number: PRJEB37062 and ENA sample accession number: ERS12561826 for biotransformation under anaerobic condition. The drug concentrations were measured over 9 timepoints collected between 0 and 24 hours of incubation by liquid-chromatography-coupled mass spectrometry (LC–MS); details: 2 µM
[2] = (§2) The drug is tested on Z-025 corresponding to rabbit gut metagenome with ENA study accession number: PRJEB37062 and ENA sample accession number: ERS12561824 for biotransformation under anaerobic condition. The drug concentrations were measured over 9 timepoints collected between 0 and 24 hours of incubation by liquid-chromatography-coupled mass spectrometry (LC–MS); details: 2 µM
[3] = as §2, with “Z-014” for “Z-025”, “rat” for “rabbit”, “ERS12561814” for “ERS12561824”; details: 2 µM
[4] = as §1, with “Z-012” for “Z-027”, “ERS12561812” for “ERS12561826”; details: 2 µM
[5] = as §2, with “Z-011” for “Z-025”, “mouse” for “rabbit”, “ERS12561811” for “ERS12561824”; details: 2 µM
[6] = as §2, with “Z-007” for “Z-025”, “rat” for “rabbit”, “ERS12561807” for “ERS12561824”; details: 2 µM
[7] = as §2, with “Z-001” for “Z-025”, “mouse” for “rabbit”, “ERS12561801” for “ERS12561824”; details: 2 µM
[8] = as §2, with “WLS-310” for “Z-025”, “human” for “rabbit”, “ERS12561785” for “ERS12561824”; details: 2 µM
[9] = as §2, with “WLS-240” for “Z-025”, “human” for “rabbit”, “ERS12561773” for “ERS12561824”; details: 2 µM
[10] = as §2, with “WLS-038” for “Z-025”, “human” for “rabbit”, “ERS12561745” for “ERS12561824”; details: 2 µM
[11] = as §2, with “WLS-007” for “Z-025”, “human” for “rabbit”, “ERS12561742” for “ERS12561824”; details: 2 µM
[12] = human gut metagenome, 24 h, 2 µM
[13] = human gut metagenome, 24 h, 2 µM; remark: listed apart in the source
[14] = human gut metagenome, 24 h, 2 µM; remark: listed apart in the source
[15] = human gut metagenome, 24 h, 2 µM; remark: listed apart in the source
[16] = human gut metagenome, 24 h, 2 µM; remark: listed apart in the source
[17] = human gut metagenome, 24 h, 2 µM; remark: listed apart in the source
[18] = human gut metagenome, 24 h, 2 µM; remark: listed apart in the source
[19] = human gut metagenome, 24 h, 2 µM; remark: listed apart in the source
[20] = human gut metagenome, 24 h, 2 µM; remark: listed apart in the source
Also: call rule not given here.

## COc1ccc2[nH]c([S+]([O-])Cc3ncc(C)c(OC)c3C)nc2n1 (stereo not given) [TENATOPRAZOLE]
[1]
  Bacterial Biotransformation: Compound metabolized
[2]
  Bacterial Biotransformation: Compound metabolized
[3]
  Bacterial Biotransformation: Compound metabolized
[4]
  Bacterial Biotransformation: Compound metabolized
[5]
  Bacterial Biotransformation: Compound metabolized
[6]
  Bacterial Biotransformation: Compound metabolized
[7]
  Bacterial Biotransformation: Compound metabolized
[8]
  Bacterial Biotransformation: Compound metabolized
[9]
  Bacterial Biotransformation: Compound metabolized
[10]
  Bacterial Biotransformation: Compound metabolized
[11]
  Bacterial Biotransformation: Compound metabolized
[12]
  Bacterial Biotransformation: Compound NOT metabolized
[13]
  Bacterial Biotransformation: Compound metabolized
[14]
  Bacterial Biotransformation: Compound metabolized
[15]
  Bacterial Biotransformation: Compound metabolized
[16]
  Bacterial Biotransformation: Compound metabolized
[17]
  Bacterial Biotransformation: Compound metabolized
[18]
  Bacterial Biotransformation: Compound metabolized
[19]
  Bacterial Biotransformation: Compound NOT metabolized
[20]
  Bacterial Biotransformation: Compound NOT metabolized

## CCCC(=O)Nc1ccc(OCC(O)CNC(C)C)c(C(C)=O)c1 (stereo not given) [ACEBUTOLOL]
[1]
  Bacterial Biotransformation: Compound NOT metabolized
[2]
  Bacterial Biotransformation: Compound NOT metabolized
[3]
  Bacterial Biotransformation: Compound NOT metabolized
[4]
  Bacterial Biotransformation: Compound NOT metabolized
[5]
  Bacterial Biotransformation: Compound NOT metabolized
[6]
  Bacterial Biotransformation: Compound NOT metabolized
[7]
  Bacterial Biotransformation: Compound NOT metabolized
[8]
  Bacterial Biotransformation: Compound metabolized
[9]
  Bacterial Biotransformation: Compound metabolized
[10]
  Bacterial Biotransformation: Compound NOT metabolized
[11]
  Bacterial Biotransformation: Compound NOT metabolized
[12]
  Bacterial Biotransformation: Compound NOT metabolized
[13]
  Bacterial Biotransformation: Compound metabolized
[14]
  Bacterial Biotransformation: Compound metabolized
[15]
  Bacterial Biotransformation: Compound metabolized
[16]
  Bacterial Biotransformation: Compound metabolized
[17]
  Bacterial Biotransformation: Compound metabolized
[18]
  Bacterial Biotransformation: Compound NOT metabolized
[19]
  Bacterial Biotransformation: Compound NOT metabolized
[20]
  Bacterial Biotransformation: Compound metabolized

## Cc1ccc(/C(=C\CN2CCCC2)c2ccccn2)cc1 [TRIPROLIDINE]
[1]
  Bacterial Biotransformation: Compound NOT metabolized
[2]
  Bacterial Biotransformation: Compound NOT metabolized
[3]
  Bacterial Biotransformation: Compound NOT metabolized
[4]
  Bacterial Biotransformation: Compound NOT metabolized
[5]
  Bacterial Biotransformation: Compound NOT metabolized
[6]
  Bacterial Biotransformation: Compound NOT metabolized
[7]
  Bacterial Biotransformation: Compound NOT metabolized
[8]
  Bacterial Biotransformation: Compound NOT metabolized
[9]
  Bacterial Biotransformation: Compound NOT metabolized
[10]
  Bacterial Biotransformation: Compound NOT metabolized
[11]
  Bacterial Biotransformation: Compound NOT metabolized
[12]
  Bacterial Biotransformation: Compound NOT metabolized
[13]
  Bacterial Biotransformation: Compound NOT metabolized
[14]
  Bacterial Biotransformation: Compound NOT metabolized
[15]
  Bacterial Biotransformation: Compound NOT metabolized
[16]
  Bacterial Biotransformation: Compound NOT metabolized
[17]
  Bacterial Biotransformation: Compound NOT metabolized
[18]
  Bacterial Biotransformation: Compound NOT metabolized
[19]
  Bacterial Biotransformation: Compound NOT metabolized
[20]
  Bacterial Biotransformation: Compound NOT metabolized

## CCOc1ccc(NC(C)=O)cc1 [PHENACETIN]
[1]
  Bacterial Biotransformation: Compound NOT metabolized
[2]
  Bacterial Biotransformation: Compound NOT metabolized
[3]
  Bacterial Biotransformation: Compound NOT metabolized
[4]
  Bacterial Biotransformation: Compound NOT metabolized
[5]
  Bacterial Biotransformation: Compound NOT metabolized
[6]
  Bacterial Biotransformation: Compound NOT metabolized
[7]
  Bacterial Biotransformation: Compound NOT metabolized
[8]
  Bacterial Biotransformation: Compound NOT metabolized
[9]
  Bacterial Biotransformation: Compound NOT metabolized
[10]
  Bacterial Biotransformation: Compound NOT metabolized
[11]
  Bacterial Biotransformation: Compound NOT metabolized
[12]
  Bacterial Biotransformation: Compound NOT metabolized
[13]
  Bacterial Biotransformation: Compound NOT metabolized
[14]
  Bacterial Biotransformation: Compound NOT metabolized
[15]
  Bacterial Biotransformation: Compound NOT metabolized
[16]
  Bacterial Biotransformation: Compound NOT metabolized
[17]
  Bacterial Biotransformation: Compound NOT metabolized
[18]
  Bacterial Biotransformation: Compound NOT metabolized
[19]
  Bacterial Biotransformation: Compound NOT metabolized
[20]
  Bacterial Biotransformation: Compound NOT metabolized

## CCOC(=O)[C@H](CCc1ccccc1)N[C@@H](C)C(=O)N1[C@H](C(=O)O)C[C@@H]2CCC[C@@H]21
[1]
  Bacterial Biotransformation: Compound NOT metabolized
[2]
  Bacterial Biotransformation: Compound NOT metabolized
[3]
  Bacterial Biotransformation: Compound NOT metabolized
[4]
  Bacterial Biotransformation: Compound metabolized
[5]
  Bacterial Biotransformation: Compound NOT metabolized
[6]
  Bacterial Biotransformation: Compound metabolized
[7]
  Bacterial Biotransformation: Compound NOT metabolized
[8]
  Bacterial Biotransformation: Compound metabolized
[9]
  Bacterial Biotransformation: Compound metabolized
[10]
  Bacterial Biotransformation: Compound metabolized
[11]
  Bacterial Biotransformation: Compound metabolized
[12]
  Bacterial Biotransformation: Compound metabolized
[13]
  Bacterial Biotransformation: Compound metabolized
[14]
  Bacterial Biotransformation: Compound metabolized
[15]
  Bacterial Biotransformation: Compound NOT metabolized
[16]
  Bacterial Biotransformation: Compound metabolized
[17]
  Bacterial Biotransformation: Compound metabolized
[18]
  Bacterial Biotransformation: Compound metabolized
[19]
  Bacterial Biotransformation: Compound metabolized
[20]
  Bacterial Biotransformation: Compound metabolized

## O=c1n(CCCN2CCN(c3cccc(Cl)c3)CC2)nc2ccccn12 [TRAZODONE]
[1]
  Bacterial Biotransformation: Compound NOT metabolized
[2]
  Bacterial Biotransformation: Compound NOT metabolized
[3]
  Bacterial Biotransformation: Compound NOT metabolized
[4]
  Bacterial Biotransformation: Compound NOT metabolized
[5]
  Bacterial Biotransformation: Compound NOT metabolized
[6]
  Bacterial Biotransformation: Compound NOT metabolized
[7]
  Bacterial Biotransformation: Compound NOT metabolized
[8]
  Bacterial Biotransformation: Compound NOT metabolized
[9]
  Bacterial Biotransformation: Compound metabolized
[10]
  Bacterial Biotransformation: Compound NOT metabolized
[11]
  Bacterial Biotransformation: Compound metabolized
[12]
  Bacterial Biotransformation: Compound NOT metabolized
[13]
  Bacterial Biotransformation: Compound metabolized
[14]
  Bacterial Biotransformation: Compound metabolized
[15]
  Bacterial Biotransformation: Compound metabolized
[16]
  Bacterial Biotransformation: Compound metabolized
[17]
  Bacterial Biotransformation: Compound metabolized
[18]
  Bacterial Biotransformation: Compound metabolized
[19]
  Bacterial Biotransformation: Compound NOT metabolized
[20]
  Bacterial Biotransformation: Compound metabolized

## CC(C)(C)NC[C@H](O)COc1ccccc1C1CCCC1.CC(C)(C)NC[C@H](O)COc1ccccc1C1CCCC1.O=S(=O)(O)O [PENBUTOLOL SULFATE]
[1]
  Bacterial Biotransformation: Compound NOT metabolized
[2]
  Bacterial Biotransformation: Compound NOT metabolized
[3]
  Bacterial Biotransformation: Compound NOT metabolized
[4]
  Bacterial Biotransformation: Compound NOT metabolized
[5]
  Bacterial Biotransformation: Compound NOT metabolized
[6]
  Bacterial Biotransformation: Compound NOT metabolized
[7]
  Bacterial Biotransformation: Compound metabolized
[8]
  Bacterial Biotransformation: Compound metabolized
[9]
  Bacterial Biotransformation: Compound metabolized
[10]
  Bacterial Biotransformation: Compound metabolized
[11]
  Bacterial Biotransformation: Compound metabolized
[12]
  Bacterial Biotransformation: Compound metabolized
[13]
  Bacterial Biotransformation: Compound metabolized
[14]
  Bacterial Biotransformation: Compound metabolized
[15]
  Bacterial Biotransformation: Compound metabolized
[16]
  Bacterial Biotransformation: Compound metabolized
[17]
  Bacterial Biotransformation: Compound metabolized
[18]
  Bacterial Biotransformation: Compound metabolized
[19]
  Bacterial Biotransformation: Compound metabolized
[20]
  Bacterial Biotransformation: Compound metabolized

## CC(=O)OCC(=O)[C@@]12N=C(C)O[C@@H]1C[C@H]1[C@@H]3CCC4=CC(=O)C=C[C@]4(C)[C@H]3[C@@H](O)C[C@@]12C [DEFLAZACORT]
[1]
  Bacterial Biotransformation: Compound metabolized
[2]
  Bacterial Biotransformation: Compound metabolized
[3]
  Bacterial Biotransformation: Compound metabolized
[4]
  Bacterial Biotransformation: Compound metabolized
[5]
  Bacterial Biotransformation: Compound metabolized
[6]
  Bacterial Biotransformation: Compound metabolized
[7]
  Bacterial Biotransformation: Compound metabolized
[8]
  Bacterial Biotransformation: Compound metabolized
[9]
  Bacterial Biotransformation: Compound metabolized
[10]
  Bacterial Biotransformation: Compound metabolized
[11]
  Bacterial Biotransformation: Compound metabolized
[12]
  Bacterial Biotransformation: Compound metabolized
[13]
  Bacterial Biotransformation: Compound metabolized
[14]
  Bacterial Biotransformation: Compound metabolized
[15]
  Bacterial Biotransformation: Compound metabolized
[16]
  Bacterial Biotransformation: Compound metabolized
[17]
  Bacterial Biotransformation: Compound metabolized
[18]
  Bacterial Biotransformation: Compound metabolized
[19]
  Bacterial Biotransformation: Compound metabolized
[20]
  Bacterial Biotransformation: Compound metabolized
